Laboratory results from patent publication US11957703B2, “Modulating Nudix homology domain (NHD) with nicotinamide mononucleotide analogs and derivatives of same” (President and Fellows of Harvard College, priority 2017, dated 2024).

Legend:
[1] = target: T1, PARP1-DBC1 complex (Homo sapiens, UniProt Q8N163); assay: PARP1-DBC1 dissociation assay (Flag-DBC1 immunoprecipitates incubated with molecules); format: binding
T1 construct: expressed in transfected cells; host or cells: 293T cells stably expressing Flag-DBC1 (retroviral pMSCVpuro-Flag-DBC1)
T1 sequence (Q8N163 whole entry, one chain of several): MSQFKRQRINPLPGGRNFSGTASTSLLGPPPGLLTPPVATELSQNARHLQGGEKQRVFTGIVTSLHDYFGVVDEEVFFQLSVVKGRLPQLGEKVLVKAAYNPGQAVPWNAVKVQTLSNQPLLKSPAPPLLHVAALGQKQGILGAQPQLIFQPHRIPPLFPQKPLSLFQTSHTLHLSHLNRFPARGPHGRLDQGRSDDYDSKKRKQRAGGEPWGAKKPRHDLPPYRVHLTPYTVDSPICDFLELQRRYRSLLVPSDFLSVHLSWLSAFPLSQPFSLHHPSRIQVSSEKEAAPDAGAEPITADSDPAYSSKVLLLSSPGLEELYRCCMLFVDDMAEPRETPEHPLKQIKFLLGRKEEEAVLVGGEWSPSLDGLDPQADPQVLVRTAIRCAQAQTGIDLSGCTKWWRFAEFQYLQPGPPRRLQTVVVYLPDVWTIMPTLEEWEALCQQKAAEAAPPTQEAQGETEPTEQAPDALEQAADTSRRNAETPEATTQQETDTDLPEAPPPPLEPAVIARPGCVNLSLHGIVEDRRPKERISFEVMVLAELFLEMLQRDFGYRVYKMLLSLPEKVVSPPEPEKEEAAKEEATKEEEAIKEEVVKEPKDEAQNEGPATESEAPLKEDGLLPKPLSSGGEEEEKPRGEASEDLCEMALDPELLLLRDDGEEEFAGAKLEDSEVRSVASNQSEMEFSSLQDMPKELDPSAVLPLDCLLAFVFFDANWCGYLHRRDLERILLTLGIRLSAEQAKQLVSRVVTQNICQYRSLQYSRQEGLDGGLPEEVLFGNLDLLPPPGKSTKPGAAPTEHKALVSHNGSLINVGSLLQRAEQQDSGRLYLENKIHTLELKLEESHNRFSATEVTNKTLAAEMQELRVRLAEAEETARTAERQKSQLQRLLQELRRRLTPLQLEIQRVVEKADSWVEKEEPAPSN
Experimental: (§1) Protein extracts from 293T or mouse liver tissues were lysed in ice-cold buffer (150 mM NaCl, 1 mM EDTA, 1 mM EGTA, 1% Triton X-100, 0.5% NP-40, 10 mM Tris HCl, pH 7.4) supplemented with protease inhibitors cocktail cOmplete tablets (Roche) and phosphatase inhibitor cocktail 2 and 3 (Sigma). Protein concentrations were determined by the Bradford protein assay (Bio-rad). Flag-M2 agarose beads or anti-V5 agarose affinity gel (Sigma) were mixed with the lysate supernatant. Immunoprecipitation was allowed to proceed for 2 hours up to overnight at 4° C. with gentle rotation. After 4 washes with lysis buffer, proteins were either directly boiled in SDS-PAGE sample buffer or eluted from the agarose beads using 3×FLAG peptides (Sigma).
(§2) Cell lysates or Co-IP samples were run on homemade 10% or 4-20% gradient pre-cast SDS-PAGE gels (Bio-Rad) under reducing conditions, and then transferred to a polyvinylidene difluoride (PVDF) membrane (Millipore). Membranes were blocked with 5% non-fat dry milk in TBS-Tween (10 mM Tris HCl, pH 7.5, 150 mM NaCl, and 0.1% Tween-20). Antibodies were used at the following concentrations: anti-SIRT1 (Santa Cruz, SC-15404) at 1:500, anti-DBC1 (Bethyl Labotatories, A300-434A) at 1:1000, anti-PARP1 (Cell Signaling, #9542L) at 1:1000, anti-γH2AX (Abcam, ab2893) at 1:1000, anti-H2AX (Abcam, ab11175) at 1:1000, anti-NMNAT1 (Abcam, ab45548) at 1:1000, anti-GAPDH (Millipore, MAB374) at 1:3000, anti-V5 (Invitrogen, R960-25) at 1:3000, anti-beta-tubulin (Upstate, 05-661) at 1:1000, anti-α-actin (Millipore, MAB1501R) at 1:2000, anti-Flag (Sigma, F7425) at 1:3000, anti-PARG (Abcam, ab16060) at 1:1000, p53 (Calbiochem, OP43) at 1:1000, RAD51 (Calbiochem, PC130) at 1:1000, p21 (Neomarker-Labvision-Thermal Fisher, RB-032-P1) at 1:1000, SIRT6 (Cell signaling, D8D12) at 1:1000, Streptavidin-HRP at 1:1000 (Trevigen #4800-30-06), anti-PAR (Trevigen, #4335-MC-100; Abcam, ab14459) at 1:1000 and anti-PARP2 (Santa Cruz, SC-393310) at 1:200 overnight at 4° C. The antibodies ATM, ATR, BRCA1, Chk1, Chk2, DNA-PKs and XRCC1 were all from the Bethyl Laboratories. Phospho-Chk1, phospho-Chk2 and phosphor-p53 antibodies were from a DNA Damage Antibody Sampler Kit (Cell Signaling #9947). Secondary antibodies were horseradish peroxidase-coupled sheep anti-mouse IgG (GE Healthcare, UK), donkey anti-rabbit IgG (GE Healthcare, UK). Amersham™ ECL and Amersham Select ECL western blotting detection systems (GE Healthcare, UK) were used to develop signals. Quantifications of images from western blot films were performed using ImageJ (National Institutes of Health, Bethesda, MD).
Equal aliquots of 293T cell lysates with over-expressing Flag-DBC1 were immunoprecipitated using Flag-M2 agarose beads as described above. After four brief washes with lysis buffer, the beads aliquots were incubated with the freshly dissolved NAD^+ or other chemicals for 1 hr at 4° C. with gentle rotation then centrifuged (5000 rpm, 5 min). After completely removing supernatant, the beads were boiled in SDS loading buffer, analyzed by SDS-PAGE, and probed with antibodies.

[2] = system: PARP1-DBC1 interaction; assay: PARP1-DBC1 interaction in treated 293T cells (co-immunoprecipitation); format: cell-based, human; settings: for effect on the PARP1-DBC1 interaction in 293T cells: PJ34 or 3-AB (2 mM) for 24 hrs
Experimental: 293T, MCF-7, DBC1 wild type and knockout MEFs (a gift from Dr. Eduardo N. Chini from Mayo Clinic) were cultured in Dulbecco's modified Eagle's medium (DMEM, Mediatech, Inc., Herndon, VA) supplemented with 10% fetal bovine serum (Gemini Bio-products, Woodland, CA) with the presence of penicillin and streptomycin (Corning, Manassas, VA). Retroviruses expressing wild-type or mutant Flag-DBC1 proteins were produced by transfecting 293T cells with plasmids encoding VSV-G, Gag-Pol, and pMSCVpuro-Flag-DBC1 constructs using Lipofectamine® 2000 according to the manufacturer's instructions. Media was changed the day after transfection, and virus-containing media was harvested between 48 and 72 hours post-transfection and filtered through a […] (Corning, Manassas, VA). The filtered media was incubated with the target cells in the presence of 5 μg/mL polybrene (Sigma) and selection started using puromycin (2 μg/mL) 48 hrs post-infection. Lentivirus for knocking down DBC1 or SIRT1 was produced by transfecting 293T with psPAX2 (Addgene plasmid #12260), pMD2.G (Addgene plasmid #12259) and shRNA constructs using Lipofectamine® 2000. The virus harvest, infection and selection were same as described for retrovirus production. The transfections of siRNA were performed using Lipofectamine® RNAiMAX, according to the manufacturer's instructions.
as §1
(§3) Cell lysates or Co-IP samples were run on homemade 10% or 4-20% gradient pre-cast SDS-PAGE gels (Bio-Rad) under reducing conditions, and then transferred to a polyvinylidene difluoride (PVDF) membrane (Millipore). Membranes were blocked with 5% non-fat dry milk in TBS-Tween (10 mM Tris HCl, pH 7.5, 150 mM NaCl, and 0.1% Tween-20). […] Quantifications of images from western blot films were performed using ImageJ (National Institutes of Health, Bethesda, MD).

[3] = system: cellular NAD^+ levels; assay: NAD+ quantification in 293T cells; format: cell-based, human; settings: treatment of 293T cells
Experimental: NAD^+ quantification was conducted with an NAD/NADH Quantification Kit (Biovision, Milpitas, CA) following the manufacturer's instructions and normalized to soluble protein content.

[4] = system: PAR; assay: PAR induced by paraquat in 293T cells (western blot); format: cell-based, human; settings: 3-AB 2 mM, paraquat 0.5 mM
Experimental: as §2, with “The antibodies ATM, ATR, BRCA1, Chk1, Chk2, DNA-PKs and XRCC1 were all from the Bethyl Laboratories. Phospho-Chk1, phospho-Chk2 and phosphor-p53 antibodies were from a DNA Damage Antibody Sampler Kit (Cell Signaling #9947). Secondary antibodies were horseradish peroxidase-coupled sheep anti-mouse IgG (GE Healthcare, UK), donkey anti-rabbit IgG (GE Healthcare, UK). Amersham™ ECL and Amersham Select ECL western blotting detection systems (GE Healthcare, UK) were used to develop signals.” left out

[5] = target: T2, DBC1WT (Homo sapiens, UniProt Q8N163); assay: Biotin-NAD+ binding assay, DBC1 wild type; settings: unlabeled competitor
T2 construct: expressed in transfected cells; host or cells: 293T cells
T2 sequence (Q8N163 whole entry): as the sequence (Q8N163 whole entry, one chain of several) above
Experimental: Lysates of 293T cells expressing Flag-DBC1 or V5/his-DBC1 were prepared as described above and bound to an anti-Flag high sensitivity M2 coated 96-well plate (Sigma) or His-Select® high sensitivity nickel coated 96-well plate (Sigma) by incubating for 3-4 hrs at 4° C., then washed three times with lysis buffer. Biotin-NAD^+ (Trevigen), or specified molecules were incubated in the plates overnight at 4° C. After washing twice with PBS (pH 7.4) and twice with PBS-T (0.1% Triton X-100), streptavidin-HRP (Trevigen, 1:500) in PBS-T was added to each well and incubated for 1 hr at room temperature. After washing twice with PBS (pH 7.4) and twice with PBS-T, 100 μl of PeroxyGlow™ A and B chemiluminescent substrates (Trevigen) mixture (1:1) was added into each well for 1 min followed by immediate quantification of chemiluminescence on a EnSpire 2300 Multi-label reader (Perkin Elmer). Binding curves were calculated using the “one site, specific binding” formula of GraphPad.

[6] = system: p53 and RAD51 pulled down with Flag-DBC1; assay: Interaction of DNA repair proteins with Flag-DBC1 in 293T cells; format: cell-based, human; settings: 0.5 mM, 24 hrs
Experimental: as §1, §3

[7] = system: SIRT1-DBC1 interaction; assay: SIRT1-DBC1 interaction in treated 293T cells; format: cell-based, human; settings: FK866 (5 nM, 24 hrs)
Experimental: 293T, MCF-7, DBC1 wild type and knockout MEFs (a gift from Dr. Eduardo N. Chini from Mayo Clinic) were cultured in Dulbecco's modified Eagle's medium (DMEM, Mediatech, Inc., Herndon, VA) supplemented with 10% fetal bovine serum (Gemini Bio-products, Woodland, CA) with the presence of penicillin and streptomycin (Corning, Manassas, VA). Retroviruses expressing wild-type or mutant Flag-DBC1 proteins were produced by transfecting 293T cells with plasmids encoding VSV-G, Gag-Pol, and pMSCVpuro-Flag-DBC1 constructs using Lipofectamine® 2000 according to the manufacturer's instructions. […]
Protein extracts from 293T or mouse liver tissues were lysed in ice-cold buffer (150 mM NaCl, 1 mM EDTA, 1 mM EGTA, 1% Triton X-100, 0.5% NP-40, 10 mM Tris HCl, pH 7.4) supplemented with protease inhibitors cocktail cOmplete tablets (Roche) and phosphatase inhibitor cocktail 2 and 3 (Sigma). Protein concentrations were determined by the Bradford protein assay (Bio-rad). […]
Cell lysates or Co-IP samples were run on homemade 10% or 4-20% gradient pre-cast SDS-PAGE gels (Bio-Rad) under reducing conditions, and then transferred to a polyvinylidene difluoride (PVDF) membrane (Millipore). […] Quantifications of images from western blot films were performed using ImageJ (National Institutes of Health, Bethesda, MD).

## NC(=O)c1ccc[n+]([C@@H]2C[C@H](COP(=O)(O)OP(=O)(O)OC[C@H]3O[C@@H](n4cnc5c(N)ncnc54)[C@H](O)[C@@H]3O)[C@@H](O)[C@H]2O)c1 [Carba-NAD, Carbanicotinamide adenine dinucleotide]
[1]; non-hydrolysable NAD^+ analogue, concentration not given
  effect on the PARP1-DBC1 complex: abrogated

## Nc1ncnc2c1ncn2[C@@H]1O[C@H](COP(=O)(O)OP(=O)(O)OP(=O)(O)O)[C@@H](O)[C@H]1O [ATP, adenosine triphosphate]
[1]; 200 μM, 1 hr
  effect on the PARP1-DBC1 complex: no effect

## Nc1ncnc2nc[nH]c12 [adenine]
[1]; 200 μM, 1 hr
  effect on the PARP1-DBC1 complex: less effective than NAD^+

## NC(=O)c1ccc[n+]([C@@H]2O[C@H](CO)[C@@H](O)[C@H]2O)c1 [NR, Nicotinamide Riboside]
[1]; 200 μM, 1 hr
  effect on the PARP1-DBC1 complex: no effect
[2]; treatment of 293T cells with NR
  PARP1-DBC1 complex in 293T cells: dissociates
[3]
  cellular NAD^+ levels: raises

## NC(=O)c1cccc(N)c1 [3-AB, 3-aminobenzamide]
[1]; 2 mM, 1 hr
  effect on the PARP1-DBC1 complex: no effect
[2]
  effect on the PARP1-DBC1 interaction in 293T cells: no effect
[4]
  PAR induced by paraquat: inhibitory effect

## NC(=O)c1ccc[n+]([C@@H]2O[C@H](COP(=O)([O-])OP(=O)(O)OC[C@H]3O[C@@H](n4cnc5c(N)ncnc54)[C@H](O)[C@@H]3O)[C@@H](O)[C@H]2O)c1 [unlabeled NAD^+]
[5]
  competition of labeled NAD^+ bound to DBC1: competed off

## C[n+]1ccc(-c2cc[n+](C)cc2)cc1 [paraquat]
[6]
  interaction of p53 and RAD51 with Flag-DBC1: did not change

## Nc1ncnc2c1ncn2[C@@H]1O[C@H](CO)[C@@H](O)[C@H]1O [adenosine]
[1]; 200 μM, 1 hr
  effect on the PARP1-DBC1 complex: no effect

## NC(=O)C1=CN([C@@H]2O[C@H](COP(=O)(O)OP(=O)(O)OC[C@H]3O[C@@H](n4cnc5c(N)ncnc54)[C@H](O)[C@@H]3O)[C@@H](O)[C@H]2O)C=CC1 [NADH]
[1]; 200 μM, 1 hr
  effect on the PARP1-DBC1 complex: less effective than NAD^+

## CN(C)CC(=O)Nc1ccc2[nH]c(=O)c3ccccc3c2c1 [PJ-34]
[2]
  effect on the PARP1-DBC1 interaction in 293T cells: no effect

## O=C(/C=C/c1cccnc1)NCCCCC1CCN(C(=O)c2ccccc2)CC1 [FK866]
[2]; FK866, 24 hrs
  PARP1-DBC1 interaction in HEK293T cells: increased
[7]
  SIRT1-DBC1 interaction in cells: slightly diminished

## Nc1ncnc2c1ncn2[C@@H]1O[C@H](COP(=O)(O)OP(=O)(O)OC[C@H]2OC(O)[C@H](O)[C@@H]2O)[C@@H](O)[C@H]1O (stereo partly drawn) [ADPr, ADP-ribose]
[1]; 200 μM, 1 hr
  effect on the PARP1-DBC1 complex: no effect

## NC(=O)c1cccnc1 [NAM, Nicotinamide]
[1]; 500 μM, 1 hr
  effect on the PARP1-DBC1 complex: no effect
